In EP0908457B1, “3-(1,2-benzisothiazol- and isoxazol-5-Y1)-2,4(1H,3H)-pyrimidinedione or thione and 3-(1,2-benzisothiazol- and isoxazol-5-y1)-4(3H)-pyrimidinone or thione herbicidal agents” (BASF AKTIENGESELLSCHAFT, priority 1997, dated 1999):

Assays:
[1] = system: Echinochloa oryzoides (Ard.) Fritsch.; assay: Preemergence weed control under flooded paddy conditions, ECHORC (Watergrass (Calif.)); type: in vivo; details: preemergence, flooded paddy, rated three to four weeks after treatment
Cyperus iria = assay: Preemergence weed control under flooded paddy conditions, CYPIR (Rice Flatsedge); type: in vivo; details: preemergence, flooded paddy, rated three to four weeks after treatment
[2] = system: Cyperus serotinus, Rottb.; assay: Preemergence weed control under flooded paddy conditions, CYPSE (Flatsedge); type: in vivo; details: preemergence, rated three to four weeks after treatment
[3] = system: Monochoria vaginalis, Presl.; assay: Preemergence weed control under flooded paddy conditions, MOOVA (Monochoria); type: in vivo; details: preemergence, flooded paddy, rated three to four weeks after treatment
Sagittaria pygmaea, L. = assay: Preemergence weed control under flooded paddy conditions, SAGPY (Arrowhead (Pygmaea)); type: in vivo; details: preemergence, flooded paddy, rated three to four weeks after treatment
[4] = system: Oryza sativa, (L.) Tebonnet; assay: Rice tolerance to post-transplant applications under flooded paddy conditions (Example 187), ORYSAT (Rice, Tebonnet); details: rated three to four weeks after treatment
Also: meaning of each grade not given here.

SMILES	herbicidal effect rating, ECHORC ([1]; Rate 0.0320 kg/ha)	herbicidal effect rating, ECHORC ([1]; Rate 0.0620 kg/ha)	herbicidal effect rating, ECHORC ([1]; Rate 0.1250 kg/ha)	herbicidal effect rating, ECHORC ([1]; Rate 0.2500 kg/ha)	herbicidal effect rating, CYPIR (Cyperus iria; Rate 0.0320 kg/ha)	herbicidal effect rating, CYPIR (Cyperus iria; Rate 0.0620 kg/ha)	herbicidal effect rating, CYPIR (Cyperus iria; Rate 0.1250 kg/ha)	herbicidal effect rating, CYPIR (Cyperus iria; Rate 0.2500 kg/ha)	herbicidal effect rating, CYPSE ([2]; Rate 0.0320 kg/ha)	herbicidal effect rating, CYPSE ([2]; Rate 0.1250 kg/ha)	herbicidal effect rating, MOOVA ([3]; Rate 0.1250 kg/ha)	herbicidal effect rating, MOOVA ([3]; Rate 0.2500 kg/ha)	herbicidal effect rating, SAGPY (Sagittaria pygmaea, L.; Rate 0.0320 kg/ha)	herbicidal effect rating, SAGPY (Sagittaria pygmaea, L.; Rate 0.0620 kg/ha)	herbicidal effect rating, SAGPY (Sagittaria pygmaea, L.; Rate 0.1250 kg/ha)	herbicidal effect rating, SAGPY (Sagittaria pygmaea, L.; Rate 0.2500 kg/ha)	herbicidal effect rating ORYSAT ([4]; Rate 0.0320 kg/ha)	herbicidal effect rating ORYSAT ([4]; Rate 0.0620 kg/ha)	herbicidal effect rating ORYSAT ([4]; Rate 0.1250 kg/ha)	herbicidal effect rating ORYSAT ([4]; Rate 0.2500 kg/ha)	further results
Cn1c(C(F)(F)F)cc(=O)n(-c2ccc3snc(COCc4cccc([N+](=O)[O-])c4)c3c2)c1=O [Example 588, 2,4(1H,3H)-Pyrimidinedione, 1-methyl-3-{3-{[(m-nitrobenzyl)oxy]methyl}-1,2-benzisothiazol-5-yl}-6-(trifluoromethyl)-]	4.0	7.0	9.0	7.0	0.0	2.0	6.0	6.0	0.0	5.0	7.0	8.0	0.0	0.0	0.0	0.0	0.0	3.0	3.0	3.0	herbicidal effect rating, CYPSE ([2]; Rate 0.0620 kg/ha): 0.0; herbicidal effect rating, CYPSE ([2]; Rate 0.2500 kg/ha): 5.0
Cn1c(C(F)(F)F)cc(=O)n(-c2ccc3snc(COCc4ccc([N+](=O)[O-])cc4)c3c2)c1=O [Example 589, 2,4(1H,3H)-Pyrimidinedione, 1-methyl-3-{3-{[(p-nitrobenzyl)oxy]methyl}-1,2-benzisothiazol-5-yl}-6-(trifluoromethyl)-]	4.0	4.0	4.0	4.0	0.0	2.0	3.0	4.0	0.0	0.0	8.0	9.0	0.0	2.0	2.0	3.0	0.0	0.0	0.0	0.0	herbicidal effect rating, CYPSE ([2]; Rate 0.0620 kg/ha): 0.0; herbicidal effect rating, MOOVA ([3]; Rate 0.0320 kg/ha): 7.0; herbicidal effect rating, MOOVA ([3]; Rate 0.0620 kg/ha): 8.0
CC(c1nsc2ccc(-n3c(=O)cc(C(F)(F)F)n(C)c3=O)cc12)S(C)(=O)=O (stereo not shown) [Example 590, 2,4(1H,3H)-Pyrimidinedione, 1-methyl-3-{3-[1-(methylsulfonyl)ethyl}-1,2-benzisothiazol-5-yl}-6-(trifluoromethyl)-]	3.0	5.0	6.0	9.0	2.0	7.0	7.0	9.0	0.0	–	7.0	9.0	3.0	4.0	8.0	9.0	3.0	5.0	5.0	6.0	herbicidal effect rating, CYPSE ([2]; Rate 0.2500 kg/ha): 5.0; herbicidal effect rating, MOOVA ([3]; Rate 0.0620 kg/ha): 7.0
CC(C)C=C(C#N)c1nsc2ccc(-n3c(=O)cc(C(F)(F)F)n(C)c3=O)cc12 [Example 591, 1,2-Benzisothiazole-3-acetonitrile, 5-[3,6-dihydro-3-methyl-2,6-dioxo-4-(trifluoromethyl)-1(2H)-pyrimidinyl]-alpha-(2-methylpropylidene)-]	3.0	3.0	7.0	9.0	3.0	4.0	7.0	7.0	0.0	0.0	9.0	9.0	0.0	3.0	7.0	7.0	2.0	4.0	4.0	5.0	herbicidal effect rating, MOOVA ([3]; Rate 0.0320 kg/ha): 7.0; herbicidal effect rating, MOOVA ([3]; Rate 0.0620 kg/ha): 9.0
Cn1c(C(F)(F)F)cc(=O)n(-c2ccc3snc(C(C#N)=Cc4ccccn4)c3c2)c1=O [Example 592, 1,2-Benzisothiazole-3-acetonitrile, 5-[3,6-dihydro-3-methyl-2,6-dioxo-4-(trifluoromethyl)-1(2H)-pyrimidinyl]-alpha-(2-pyridylmethylene)-]	0.0	3.0	4.0	5.0	2.0	3.0	4.0	6.0	0.0	0.0	9.0	9.0	0.0	3.0	3.0	–	2.0	2.0	4.0	4.0	herbicidal effect rating, MOOVA ([3]; Rate 0.0320 kg/ha): 8.0; herbicidal effect rating, MOOVA ([3]; Rate 0.0620 kg/ha): 9.0
Cn1c(C(F)(F)F)cc(=O)n(-c2ccc3snc(C(C#N)=Cc4ccoc4)c3c2)c1=O [Example 593, 1,2-Benzisothiazole-3-acetonitrile, 5-[3,6-dihydro-3-methyl-2,6-dioxo-4-(trifluoromethyl)-1(2H)-pyrimidinyl]-alpha-(3-furylmethylene)-]	0.0	0.0	0.0	0.0	3.0	3.0	4.0	5.0	–	0.0	7.0	7.0	0.0	0.0	0.0	0.0	0.0	0.0	0.0	0.0	herbicidal effect rating, CYPSE ([2]; Rate 0.2500 kg/ha): 0.0; herbicidal effect rating, MOOVA ([3]; Rate 0.0620 kg/ha): 7.0
